# From US12599676B2, “Cytotoxic imidazo[1,2-A]pyridine compounds and their use in therapy” (MyricX Pharma Limited, priority 2022, dated 2026)
# How the values were obtained:
# [1] = tested on: SU-DHL-10 cell line (human B cell lymphoma); test: Cell cytotoxicity in SU-DHL-10 cell line (CellTiter-Glo); assay type: cell-based; conditions: 72 h treatment, CTG
# Protocol: Certain Example compounds of the invention and Comparator Compound 1 were tested in the SU-DHL-10 cell line (human B cell lymphoma). Compounds which show efficacy in this assay are expected to be useful as agents for treating or preventing hyperproliferative disorders such as cancer.
# Cells were seeded in 96-well microplates and treated with compounds or cisplatin (as a positive control) at 9 increasing concentrations in technical triplicate. […] On day 1, 90 μL of various cell suspensions with the number of cells ranging from 5000-8000 cells/well were seeded into wells of a 96-well plate (Corning). The number of cells to be seeded was previously determined. • 2. All 96-wells plates with cells were placed in an incubator overnight at 37° C. with 5% CO2. • 3. On day 2, cells were observed under a microscope ensuring the cells treated with vehicle control were in good condition. • 4. A dilution series of the test compounds and cisplatin were prepared at 10× the final concentrations required. 10 μL/well of 10× compound solution was added to the corresponding plates. The final volume was 100 μL/well for all the plates. Final DMSO concentration was 0.1%. • 5. On day 5 (after 72 hours of incubation), 50 μL of CTG reagent was added to each well. • 6. Contents were mixed for 5 minutes on an orbital shaker to facilitate cell lysis. • 7. The plate was allowed to incubate at room temperature for 10 minutes to stabilize luminescent signals.
# Luminescence was recorded using an EnVision Multi Label Reader. Data analysis was performed using GraphPad Prism 8.0.
# To calculate IC50, a concentration-response curve was generated using a nonlinear regression model with a sigmoidal concentration response. The formula for calculating the % of viable cells was shown below, and the IC50s are automatically generated by GraphPad Prism 8.0.
# (LumTest article=luminescence in test article treated well; LumNone treated=luminescence in vehicle treated well; LumMedium control=luminescence in a well containing only medium and no cells; LumNone treated-LumMedium control was set as 100%)
# [2] = Caco-2 cell permeability assay; assay type: in vitro ADME; conditions: human, Caco-2, pH 7.4, basal to apical Papp, pH 7.4, 2.5 h
# Protocol: (§1) Certain Example compounds and Comparative Example 1 were tested for their apical to basal (AB) and basal to apical (BA) permeability in Caco-2 cells.
# (§2) Cell Culture: Caco-2 cells were grown for 10 days in 96-well plates in HBSS buffer containing 10 mM HEPES. Both the apical and basal pH was buffered at pH 7.4. The apical/basal volumes were 75 μl and 250 μl respectively. The incubation time was 2.5 h at 37° C. (without shaking) under 5% CO2 & 95% relative humidity.
# (§3) Cell Seeding: Cells were seeded at a density of 18750 cells/well (membrane area=0.0804 cm^2) in a 96 well plate.
# (§4) AB Assay: 75 μl of cell suspension was added at a density 2.5×10^5 cells/ml to the apical wells. 40 ml media was added to the feeder tray. The plates were placed in the incubator (37° C., 5% CO2 and controlled humidity). The Caco-2 cells were grown for 10 days with a media change on every alternate day.
# (§5) BA Assay: 25 μl of cell suspension was added at a density of 7.5×10^5 cells/ml to the bottom side (keeping the plate upside down) of apical wells. The plate (upside down position) was placed in the incubator (37° C., 5% CO2 and 95% Relative humidity) for 2 h. The plate was turned right side up. 75 μl media was added to the apical wells and 40 ml media to the feeder tray.
# (§6) Permeablity Assay: The apical and basal wells were washed with buffer (pH 7.4) and 250 μl buffer was added to the wells of the basal plate. 75 μl of compound solution (2 μM, dissolved in water with 1% DMSO) was transferred to the apical wells (n=2). The apical plate was placed onto the basal plate. The lid was placed on to prevent evaporation. The assembly was incubated at 37° C. for 2.5 h (without shaking) under 5% CO2 and 95% relative humidity. After incubation the apical plate was separated from the basal plate. Aliquots were taken out from the acceptor and donor wells, diluted and quantified using LC-MS/MS along with initial donor samples.
# (§7) Membrane Integrity Test: Solution in the apical wells was discarded by inverting the plate and soaking onto tissue paper. 250 μl buffer (pH 7.4) was added to each well of basal plate and 75 μl of Lucifer Yellow (LY; 0.1 mg/ml) in buffer (pH 7.4) to the wells of apical plate. The apical plate was placed onto the basal plate and the lid used to prevent evaporation. The assembly was incubated at 37° C. for 1 h (without shaking) under 5% CO2 and 95% relative humidity. The apical plate was separated from the basal plate. Fluorescence (Ex: 432 nm, Em: 530 nm) of aliquots (100 ul) was measured from basal wells. Fluorescence of 100 μl buffer (pH 7.4) and 100 μl LY(0.1 mg/ml) was also measured. Wells having more than 1% fluorescence intensity with respect to 0.1 mg/ml LY were considered non-integrated membrane. Such wells, if any, were not considered for permeability calculation.
# (§8) Calculation: Drug was detected and quantified by LC-MS/MS. Data generated took the form of an apparent permeability (Papp) value. Papp=[Va/(AreaxTime)]×(LC-MS Area of Acceptor sample×Sample dilution factor/LC-MS Area of Initial Donor). Va=Volume of Acceptor Well (in ml)=0.25, Vd=Volume of Donor Well (in ml)=0.075, Area=Surface area of the membrane (cm2)=0.0804, Time=Time of incubation (sec)=9000 Results: The results of the assay are shown in Table 3 below.
# [3] = tested on: Caco-2 cells; test: Caco-2 cell permeability assay; assay type: in vitro ADME; conditions: 2 μM, pH 7.4, 2.5 h; for Caco-2 A-B: apical to basal Papp; for Caco-2 B-A: basal to apical Papp
# Protocol: as §1, §2, §3, §4, §5, §6, §7, §8
Structure (SMILES),"Papp B→A at 2.5 h, 2 μM [2] [×10⁻⁶ cm/s]",Caco-2 A-B [3] [×10⁻⁶ cm/s],Caco-2 B-A [3] [×10⁻⁶ cm/s],IC50 [1] [nM],"IC50 ([1]; Homo sapiens, SU-DHL10, 72 h) [nM]"
"CNCc1cnc2ccc(-c3ccc(F)c(F)c3OCCc3c(C(O)C(C)(C)C)nn(C)c3C)cn12 (single isomer, unassigned) [Example 13, 1-(4-(2-(2,3-difluoro-6-(3-((methylamino)methyl)imidazo[1,2-a]pyridin-6-yl)phenoxy)ethyl)-1,5-dimethyl-1H-pyrazol-3-yl)-2,2-dimethylpropan-1-ol]",,,,0.7,
"CNCc1cnc2ccc(-c3ccc(F)cc3OCCc3c(C(O)C(C)(C)C)nn(C)c3C)cn12 (centres unmarked) [Example 8, 1-(4-(2-(5-fluoro-2-(3-((methylamino)methyl)imidazo[1,2-a]pyridin-6-yl)phenoxy)ethyl)-1,5-dimethyl-1H-pyrazol-3-yl)-2,2-dimethylpropan-1-ol]",,,,,0.7
"Cc1c(CCOc2c(-c3ccc4ncc(CN)n4c3)ccc(F)c2F)c(C(O)C(C)(C)C)nn1C (centres unmarked) [Example 17, 1-(4-(2-(6-(3-(aminomethyl)imidazo[1,2-a]pyridin-6-yl)-2,3-difluorophenoxy)ethyl)-1,5-dimethyl-1H-pyrazol-3-yl)-2,2-dimethylpropan-1-ol]",,,,,1
"Cc1c(CCOc2c(-c3ccc4ncc(CN)n4c3)ccc(F)c2F)c(C(C)(C)O)nn1C [Example 20, 2-[4-(2-{6-[3-(aminomethyl)imidazo[1,2-a]pyridin-6-yl]-2,3-difluorophenoxy}ethyl)-1,5-dimethyl-1H-pyrazol-3-yl]propan-2-ol]",,,,,12
"CCNCc1cnc2ccc(-c3ccc(F)cc3OCCc3c(C(C)(C)O)nn(C)c3C)cn12 [Example 22, 2-{4-[2-(2-{3-[(ethylamino)methyl]imidazo[1,2-a]pyridin-6-yl}-5-fluorophenoxy)ethyl]-1,5-dimethyl-1H-pyrazol-3-yl}propan-2-ol]",,,,,9
"Cc1c(CCOc2cc(F)ccc2-c2ccc3ncc(CN(C)C)n3c2)c(C(O)C(C)C)nn1C (centres unmarked) [Example 24, 1-(4-(2-(2-(3-((dimethylamino)methyl)imidazo[1,2-a]pyridin-6-yl)-5-fluorophenoxy)ethyl)-1,5-dimethyl-1H-pyrazol-3-yl)-2-methylpropan-1-ol]",,,,,0.7
"CNCc1cnc2ccc(-c3ccc(F)c(F)c3OCCc3c(C(O)C(C)C)nn(C)c3C)cn12 (centres unmarked) [Example 25, 1-{4-[2-(2,3-difluoro-6-{3-[(methylamino)methyl]imidazo[1,2-a]pyridin-6-yl}phenoxy)ethyl]-1,5-dimethyl-1H-pyrazol-3-yl}-2-methylpropan-1-ol]",,,,,1

# The next lines start with results.
"Papp B→A at 2.5 h, 2 μM [2] [×10⁻⁶ cm/s]",Caco-2 A-B [3] [×10⁻⁶ cm/s],Caco-2 B-A [3] [×10⁻⁶ cm/s],Structure (SMILES),IC50 [1] [nM],"IC50 ([1]; Homo sapiens, SU-DHL10, 72 h) [nM]"
22.6,1.2,,"Cc1c(CCOc2cc(F)ccc2-c2ccc3ncc(CN(C)C)n3c2)c(C(C)O)nn1C (single isomer, unassigned) [Example 3, 1-(4-(2-(2-(3-((dimethylamino)methyl)imidazo[1,2-a]pyridin-6-yl)-5-fluorophenoxy)ethyl)-1,5-dimethyl-1H-pyrazol-3-yl)ethan-1-ol]",9.4,
,1.3,24.9,"Cc1c(CCOc2cc(F)ccc2-c2ccc3ncc(CN(C)C)n3c2)c(C(C)O)nn1C (single isomer, unassigned) [Example 4, 1-(4-(2-(2-(3-((dimethylamino)methyl)imidazo[1,2-a]pyridin-6-yl)-5-fluorophenoxy)ethyl)-1,5-dimethyl-1H-pyrazol-3-yl)ethan-1-ol]",,12
8.02,0.26,,"CNCc1cnc2ccc(-c3ccc(F)cc3OCCc3c(C(O)C(C)(C)C)nn(C)c3C)cn12 (single isomer, unassigned) [Example 9, 1-(4-(2-(5-fluoro-2-(3-((methylamino)methyl)imidazo[1,2-a]pyridin-6-yl)phenoxy)ethyl)-1,5-dimethyl-1H-pyrazol-3-yl)-2,2-dimethylpropan-1-ol]",0.6,
,0.305,8.89,"CNCc1cnc2ccc(-c3ccc(F)cc3OCCc3c(C(O)C(C)(C)C)nn(C)c3C)cn12 (single isomer, unassigned) [Example 10, 1-(4-(2-(5-fluoro-2-(3-((methylamino)methyl)imidazo[1,2-a]pyridin-6-yl)phenoxy)ethyl)-1,5-dimethyl-1H-pyrazol-3-yl)-2,2-dimethylpropan-1-ol]",2,
7.44,1.345,,"Cc1c(CCOc2c(-c3ccc4ncc(CN(C)C)n4c3)ccc(F)c2F)c(C(O)C(C)(C)C)nn1C (single isomer, unassigned) [Example 15, 1-(4-(2-(6-(3-((dimethylamino)methyl)imidazo[1,2-a]pyridin-6-yl)-2,3-difluorophenoxy)ethyl)-1,5-dimethyl-1H-pyrazol-3-yl)-2,2-dimethylpropan-1-ol]",1.2,
,1.395,9.06,"Cc1c(CCOc2c(-c3ccc4ncc(CN(C)C)n4c3)ccc(F)c2F)c(C(O)C(C)(C)C)nn1C (single isomer, unassigned) [Example 16, 1-(4-(2-(6-(3-((dimethylamino)methyl)imidazo[1,2-a]pyridin-6-yl)-2,3-difluorophenoxy)ethyl)-1,5-dimethyl-1H-pyrazol-3-yl)-2,2-dimethylpropan-1-ol]",0.2,
78,15.9,,"Cc1c(CCOc2cc(F)ccc2-c2ccc3ncc(CN(C)C)n3c2)c(C(O)C(C)(C)C)nn1C (centres unmarked) [Example 11, 1-(4-(2-(2-(3-((dimethylamino)methyl)imidazo[1,2-a]pyridin-6-yl)-5-fluorophenoxy)ethyl)-1,5-dimethyl-1H-pyrazol-3-yl)-2,2-dimethylpropan-1-ol]",,0.9
29.4,3.5,,"Cc1c(CCOc2cc(F)ccc2-c2ccc3ncc(CN(C)C)n3c2)c(C(C)(C)O)nn1C [Example 19, 2-(4-(2-(2-(3-((dimethylamino)methyl)imidazo[1,2-a]pyridin-6-yl)-5-fluorophenoxy)ethyl)-1,5-dimethyl-1H-pyrazol-3-yl)propan-2-ol]",,
9.7,0,,"Cc1c(CCOc2cc(F)ccc2-c2ccc3ncc(CCN)n3c2)c(C(C)(C)O)nn1C [Example 23, 2-(4-(2-(2-(3-(2-aminoethyl)imidazo[1,2-a]pyridin-6-yl)-5-fluorophenoxy)ethyl)-1,5-dimethyl-1H-pyrazol-3-yl)propan-2-ol]",,
